Experimental data as given in ChEMBL document CHEMBL1201862, “PubChem BioAssay data set” (2004).
Active and inactive are the calls of the source.

Assays:
Vero [1] = test: cells; assay type: functional; settings: Chlorocebus sabaeus
[2] = target: T1, Replicative DNA helicase DnaB (Mycobacterium tuberculosis, UniProt P9WMR3); test: DnaB intein splicing inhibitors, dose response, biochemical, cell-free fluorescence (AID 449749); assay type: functional
T1 sequence (P9WMR3 whole entry): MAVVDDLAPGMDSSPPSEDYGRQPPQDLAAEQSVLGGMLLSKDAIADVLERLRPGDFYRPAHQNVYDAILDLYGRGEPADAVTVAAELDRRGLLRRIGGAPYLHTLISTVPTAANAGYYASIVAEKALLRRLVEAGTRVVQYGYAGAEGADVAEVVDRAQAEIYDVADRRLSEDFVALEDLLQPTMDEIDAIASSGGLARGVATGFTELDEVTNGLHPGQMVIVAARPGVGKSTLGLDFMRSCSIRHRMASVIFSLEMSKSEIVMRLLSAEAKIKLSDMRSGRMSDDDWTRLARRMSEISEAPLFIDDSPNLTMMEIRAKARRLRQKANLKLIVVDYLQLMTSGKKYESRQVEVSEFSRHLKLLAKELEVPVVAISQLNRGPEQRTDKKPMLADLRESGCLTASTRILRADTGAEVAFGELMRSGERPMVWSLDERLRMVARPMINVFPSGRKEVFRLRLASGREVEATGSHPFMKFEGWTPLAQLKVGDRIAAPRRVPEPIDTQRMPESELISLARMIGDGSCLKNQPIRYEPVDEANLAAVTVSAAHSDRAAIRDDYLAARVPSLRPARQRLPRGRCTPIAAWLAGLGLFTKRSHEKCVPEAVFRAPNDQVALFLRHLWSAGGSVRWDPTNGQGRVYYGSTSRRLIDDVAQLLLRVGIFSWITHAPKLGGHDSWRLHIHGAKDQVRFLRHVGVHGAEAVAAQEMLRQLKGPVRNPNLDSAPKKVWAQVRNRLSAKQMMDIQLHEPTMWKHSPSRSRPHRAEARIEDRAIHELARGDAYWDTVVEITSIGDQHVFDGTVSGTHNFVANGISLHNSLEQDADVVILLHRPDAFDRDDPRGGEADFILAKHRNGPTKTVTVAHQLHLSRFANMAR

[3] = Luminescence Cell-Based Dose Retest to Confirm Inhibitors of Cancer Stem Cells. [Related pubchem assays (depositor defined):AID2717, AID2721]; assay type: functional; settings: Homo sapiens
Protein RecA = target: T2, Protein RecA (Mycobacterium tuberculosis, UniProt P9WHJ3); test: Fluorescence Cell-Free Homogeneous Dose Retest to Identify Inhibitors of RecA-Intein Splicing Activity. [Related pubchem assays (depositor defined):AID2097, AID2223, AID489010, AID492950]; assay type: functional
T2 sequence (P9WHJ3 whole entry): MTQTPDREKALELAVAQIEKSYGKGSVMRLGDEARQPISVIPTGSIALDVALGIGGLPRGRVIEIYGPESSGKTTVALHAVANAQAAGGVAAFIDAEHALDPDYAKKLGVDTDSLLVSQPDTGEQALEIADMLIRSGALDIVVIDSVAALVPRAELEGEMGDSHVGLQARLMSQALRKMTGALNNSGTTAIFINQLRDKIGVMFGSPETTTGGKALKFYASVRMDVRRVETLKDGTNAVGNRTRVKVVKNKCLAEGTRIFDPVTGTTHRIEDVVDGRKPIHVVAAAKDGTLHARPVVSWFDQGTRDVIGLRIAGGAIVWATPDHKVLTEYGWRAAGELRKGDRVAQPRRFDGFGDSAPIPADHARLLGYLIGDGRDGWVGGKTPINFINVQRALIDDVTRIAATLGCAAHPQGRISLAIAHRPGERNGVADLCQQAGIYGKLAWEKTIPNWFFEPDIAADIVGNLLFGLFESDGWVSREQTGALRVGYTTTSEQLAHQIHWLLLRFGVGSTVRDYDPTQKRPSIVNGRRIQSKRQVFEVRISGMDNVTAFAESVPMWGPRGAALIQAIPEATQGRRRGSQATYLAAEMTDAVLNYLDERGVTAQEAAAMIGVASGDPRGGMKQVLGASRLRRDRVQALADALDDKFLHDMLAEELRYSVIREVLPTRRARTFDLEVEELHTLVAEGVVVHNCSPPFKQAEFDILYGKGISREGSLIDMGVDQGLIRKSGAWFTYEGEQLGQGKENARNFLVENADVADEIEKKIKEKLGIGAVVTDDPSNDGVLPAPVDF

Vero [4] = test: cells; assay type: functional, cell-based; settings: Chlorocebus sabaeus
[5] = target: T3, Mitochondrial peptide methionine sulfoxide reductase (Bos taurus, UniProt P54149); test: Absorbance-based biochemical high throughput dose response assay for activators of Methionine sulfoxide reductase A (MsrA).; assay type: functional
T3 sequence (P54149 whole entry): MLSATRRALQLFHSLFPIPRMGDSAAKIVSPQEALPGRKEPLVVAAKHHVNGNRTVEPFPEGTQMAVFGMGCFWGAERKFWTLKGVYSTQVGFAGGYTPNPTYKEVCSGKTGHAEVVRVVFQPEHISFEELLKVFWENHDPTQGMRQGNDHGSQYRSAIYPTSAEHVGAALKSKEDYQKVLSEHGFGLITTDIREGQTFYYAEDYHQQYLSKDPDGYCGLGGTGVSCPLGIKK

[6] = target: T4, DNA repair and recombination protein RAD54-like (Homo sapiens, UniProt Q92698); test: inhibitors of human RAD54 branch migration, confirmation, biochemical, fluorescence, cherry-picked samples, dose series (AID 651657); assay type: functional
T4 sequence (Q92698 whole entry): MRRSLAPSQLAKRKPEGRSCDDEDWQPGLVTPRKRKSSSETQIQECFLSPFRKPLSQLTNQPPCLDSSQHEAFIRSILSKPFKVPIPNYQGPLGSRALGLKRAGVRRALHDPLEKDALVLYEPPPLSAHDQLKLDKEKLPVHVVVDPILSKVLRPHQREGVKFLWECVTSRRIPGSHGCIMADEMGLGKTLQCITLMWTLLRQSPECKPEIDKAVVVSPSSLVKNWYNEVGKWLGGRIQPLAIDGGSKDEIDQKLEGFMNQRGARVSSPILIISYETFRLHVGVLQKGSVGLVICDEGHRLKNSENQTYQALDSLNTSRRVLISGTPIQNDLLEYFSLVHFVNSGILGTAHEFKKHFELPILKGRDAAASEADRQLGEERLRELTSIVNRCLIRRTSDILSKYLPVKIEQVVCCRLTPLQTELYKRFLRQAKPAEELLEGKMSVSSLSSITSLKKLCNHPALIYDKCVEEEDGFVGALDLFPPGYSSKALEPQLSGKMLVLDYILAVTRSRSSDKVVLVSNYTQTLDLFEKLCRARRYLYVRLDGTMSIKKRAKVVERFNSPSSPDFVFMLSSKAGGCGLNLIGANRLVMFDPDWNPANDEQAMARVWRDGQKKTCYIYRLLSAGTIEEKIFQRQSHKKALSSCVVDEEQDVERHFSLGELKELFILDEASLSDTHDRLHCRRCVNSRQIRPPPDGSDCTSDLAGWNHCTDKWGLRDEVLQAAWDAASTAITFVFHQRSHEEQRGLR

[7] = target: T5, Microphthalmia-associated transcription factor (Homo sapiens, UniProt O75030); test: TRPM1 promoter luciferase signal decrease, dose response, MITF inhibitor project, cell-based, SK-MEL-5, cherry-picked, set 3 (AID 493073); assay type: functional
T5 sequence (O75030 whole entry): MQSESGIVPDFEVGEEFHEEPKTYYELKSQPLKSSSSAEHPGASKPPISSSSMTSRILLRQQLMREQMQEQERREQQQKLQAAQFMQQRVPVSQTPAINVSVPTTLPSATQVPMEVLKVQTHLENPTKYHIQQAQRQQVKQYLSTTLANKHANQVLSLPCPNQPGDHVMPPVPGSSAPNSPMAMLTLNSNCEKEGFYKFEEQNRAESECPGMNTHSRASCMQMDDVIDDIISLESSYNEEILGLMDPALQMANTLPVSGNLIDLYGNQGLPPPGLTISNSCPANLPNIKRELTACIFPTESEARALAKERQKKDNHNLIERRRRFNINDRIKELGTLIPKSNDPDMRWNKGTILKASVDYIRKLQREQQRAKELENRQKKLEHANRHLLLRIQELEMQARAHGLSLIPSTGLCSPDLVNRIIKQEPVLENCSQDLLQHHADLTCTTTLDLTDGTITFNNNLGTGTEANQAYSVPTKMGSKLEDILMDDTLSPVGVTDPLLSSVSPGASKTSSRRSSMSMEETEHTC

[8] = cytotoxicity toward DRD oncogenic fibroblasts, dose response, cell-based, non-viral oncogenic, luminescence (AID 1934); assay type: functional; settings: Homo sapiens
[9] = HEK293 cell cytotoxicity, dose response, cytotoxicity control, plate reader, cherry-picked samples (AID 743446); assay type: functional, cell-based
BJ [10] = test: cells; assay type: functional, cell-based; settings: Homo sapiens
[11] = A549 cell cytotoxicity, dose response, cytotoxicity control, plate reader, cherry-pick, antagonist series (AID 743412); assay type: functional, cell-based
[12] = HepG2 cell cytotoxicity, dose response, cytotoxicity control, plate reader, cherry-pick, antagonist series (AID 743416); assay type: functional, cell-based
BJ [13] = test: cytotoxicity toward BJ-TERT-LT-ST fibroblasts, dose response, cell-based, RAS-independent, luminescence (AID 1935); assay type: functional; settings: Homo sapiens;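 note: BJ fibroblasts immortalized with TERT plus LT and ST oncogenes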
[14] = cytotoxicity in HEK-293T cells, dose response, cytotoxicity control for TCR NF-kB inhibitor project, luminescence, T-cell screen hits (AID 489026); assay type: functional, cell-based;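 note: cells exposed to compound about 14 hours before the viability readout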
[15] = NIH-3T3 fibroblast cytotoxicity, dose response, cytotoxicity control, cell-based, fluorescence, Alamar Blue, secondary assay (AID 2327); assay type: functional;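 note: NIH-3T3 mouse fibroblasts cultured with fluconazole at 8 µg/mL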
[16] = HepG2 cell cytotoxicity, dose response, cytotoxicity control for Shn3 inhibitor project, CellTiter-Glo, cherry-picked (AID 624134); assay type: functional, cell-based
[17] = control 3'UTR Renilla luciferase suppression, dose response, counter-screen for Shn3 inhibitor project, cell-based, Clone20-Shn3RL, cherry-picked (AID 624133); assay type: functional
[18] = Shn3 3'UTR reporter inhibitors, dose response, cell-based, Clone20 osteoblasts, firefly luciferase, cherry-picked (AID 624132); assay type: functional;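 note: firefly luciferase luminescence from reporter carrying the Shn3 3'UTR in osteoblasts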
[19] = C. albicans growth with fluconazole, confirmation, fluorescence, retest (AID 2467); assay type: functional, cell-based
BJ [20] = test: cytotoxicity toward BJ-TERT fibroblasts, dose response, cell-based, RAS-independent, luminescence (AID 1933); assay type: functional; settings: Homo sapiens
BJ [21] = test: cytotoxicity toward Ras-transformed BJeLR fibroblasts, dose response, cell-based, alamar blue fluorescence, cherrypicked samples (AID 2631); assay type: functional; settings: Homo sapiens;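 note: confirmatory dose-response assay in RAS-dependent BJ fibroblasts engineered with TERT, LT and ST, with cytotoxicity read by fluorescence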

## C=CCSC(=C(C#N)C#N)c1cc2c([nH]1)CCCC2
Vero [1]
  CC50: 10.5 µM (active)
[2]
  AC50: > 380 µM (inactive)
[3]
  AC50: 6.73 µM (active)
Protein RecA
  EC50: 6.29 µM (active)
Vero [4]
  IC50: > 25 µM (active)

## Cc1cc(S)nc(S)n1
[5]
  EC50: > 104 µM (inactive)

## CCOC(=O)c1c(C)n(C)c2ccc(OCC(O)CN3CCC(C)CC3)cc12 (configuration not stated)
[6]
  AC50: 56.3 µM (active)

## O=c1c2ccccc2nc(/C=C/c2ccc([N+](=O)[O-])o2)n1-c1ccc(O)cc1
[7]
  AC50: 4.45 µM (active)
[8]
  EC50: 2.97 µM (active)
[9]
  AC50: 4.16 µM (active)
BJ [10]
  EC50: 3.48 µM (inconclusive)
[11]
  AC50: 4.35 µM (active)
[12]
  AC50: 4.17 µM (active)
BJ [13]
  EC50: 3.08 µM (inconclusive)
[14]
  IC50: > 80 µM (inactive)
[15]
  EC50: 3.91 µM (inconclusive)
[16]
  AC50: 5.99 µM (active)
[17]
  AC50: 4.9 µM (active)
[18]
  AC50: 3.24 µM (active)
[19]
  EC50: 0.165 µM (active)
BJ [20]
  EC50: 4.33 µM (active)
BJ [21]
  EC50: 7.06 µM (active)

## NS(=O)(=O)c1ccc(NC(=O)c2cc(-c3cccs3)nc3ccccc23)cc1
[8]
  EC50: 10.8 µM (active)
BJ [10]
  EC50: 83.1 µM (active)
BJ [13]
  EC50: > 75 µM (inconclusive)
BJ [20]
  EC50: 14.1 µM (active)
BJ [21]
  EC50: > 133 µM (inactive)
